The source of these data is PMC3747139 (PLoS ONE, 2013).

Series [1] relates to HQF DNA [d(T2AG3)4]. As to the kind of experiment: SYBR Green melting study with HQF DNA. It counts as binding, human. The note with it: melting temperature of HQF DNA (5 µM) in presence of 1 µM ligand. As to the method: When quadruplex DNA melts to form ssDNA structure, SG fluorescence intensity gradually reduces as SG has no binding to ssDNA. Each time, 5 µM of HQF DNA [d(T2AG3)4)], 5 µM of dsDNA (prepared by mixing equal concentration of poly-dA-dT and poly-dT-dA), 5 µM ssDNA ( poly dT alone) and 1 µM of each ligand was incubated at 4°C for 16 h, and used for melting studies. […] Affinity, stoichiometry and thermodynamic parameters for quadruplex-ligand complex were studied with 60 µM of ligand and 10 µM of HQF DNA using Microcal VP-ITC (Northampton, MA, USA). Ligand addition to G-quadruplex DNA was made every 180 seconds. Titration experiments were performed thrice and blank correction was made each time to minimize error.

Series [2] in a line: Cell count assay (trypan blue). It counts as cell-based. Set-up: concentration or dose not given beside the values. The note with it: human; for viability at 24 h: read-out: Number of viable cells after 24 h of ligand treatment; for viability at 48 h: read-out: Number of viable cells after 48 h of ligand treatment. As for the experimental part:
(§1) Normal and tumor cell lines were seeded at 20000–40000 cells/cm^2 with 0.2 mL/cm^2 media and incubated for 48 h at 37°C, 6% CO2, 95% relative humidity. […] After 24 h and 48 h of incubation, cells were washed with 300 µl PBS or 0.02% EDTA, trypsinized, followed by harvesting at 37°C. 200 µl cell suspension was transferred into 1.5 ml microcentrifuge tube. To the cell suspension, 300 µl PBS followed by 500 µl of 0.4% trypan blue solution was added. To get the homogenised solution, the microcentrifuge tube was gently tapped for 5 min, 20 µl of cell suspension was loaded in to a chamber of the haemocytometer.

In series [3] the test system is A549. Nature of the series: Cell count assay (trypan blue). To be noted: for Number of viable cells after 24 h of ligand treatment: A549, 24 h; for Number of viable cells after 48 h of ligand treatment: A549, 48 h. The series is classed as cell-based, human. As for the experimental part: as §1
In series [4] the test system is B16F10. Nature of the series: Cell count assay (trypan blue). The note with it: for Number of viable cells after 24 h of ligand treatment: B16F10, 24 h; for Number of viable cells after 48 h of ligand treatment: B16F10, 48 h. It counts as cell-based, human. As to the method:
as §1

Series [5] deals with MCF-7. Nature of the series: Cell count assay (trypan blue). The series is classed as cell-based, human. The note with it: for Number of viable cells after 24 h of ligand treatment: MCF-7, 24 h; for Number of viable cells after 48 h of ligand treatment: MCF-7, 48 h. As for the experimental part:
as §1

The mark [6] stands for this setting: CRL-2115 cells (normal cell line), CRL-2115, 24 h.
Where [7] appears, read: CRL-2115 cells (normal cell line), CRL-2115, 48 h.
[8] abbreviates: CRL-2120 cells (normal cell line), CRL-2120, 24 h.
Setting [9] is: CRL-2120 cells (normal cell line), CRL-2120, 48 h.
[10] abbreviates: NCM-460 cells (normal cell line), NCM-460, 24 h.
The mark [11] stands for this setting: NCM-460 cells (normal cell line), NCM-460, 48 h.

Where two headings read alike, the source gives them in different places. Marks after values point to notes of the source that are not given here.

Consider `CCOC(=O)c1nnn(Cc2ccccc2)c1/C=C/c1ccccc1` [Ligand L10, (E)-Ethyl 1-benzyl-5-styryl-1H-1,2,3-triazole-4-carboxylate], for which the Tm in series [1] is 33 ^o C. Besides, the viability at 24 h in series [2] (setting [6]), in series [2] (setting [8]) and in series [2] (setting [10]) was 80 to 90% each time. In addition, the viability at 48 h in series [2] (setting [7]) was 80 to 90%; in series [2] (setting [9]), 80 to 90%; in series [2] (setting [11]) it was 50 to 60%. Further, the entries for the “Number of viable cells after 24 h of ligand treatment” value in series [3], in series [4] and in series [5] were “+/+ (Viable cells in the range of 80%–90%)”, “+ (Viable cells in the range of 80%–90%)” and “+ (Viable cells in the range of 80%–90%)”, respectively. The “Number of viable cells after 48 h of ligand treatment” value in series [3] was “+/+ (Viable cells in the range of 80%–90%)”; in series [4] it was “++ (Viable cells in the range of 50%–60%)”; in series [5], “++ (Viable cells in the range of 50%–60%)”.

For the compound `CCOC(=O)c1nnn(Cc2ccccc2)c1-c1ccccc1` [Ligand L9, Ethyl 1-benzyl-5-phenyl-1H-1,2,3-triazole-4-carboxylate], the Tm in series [1] is 29 ^o C. Further, the viability at 24 h in series [2] (setting [6]), in series [2] (setting [8]) and in series [2] (setting [10]) was 80 to 90% each time. The viability at 48 h in series [2] (setting [7]) was 50 to 60%; in series [2] (setting [9]), 80 to 90%; in series [2] (setting [11]), 80 to 90%. The results for the “Number of viable cells after 24 h of ligand treatment” value in series [3], in series [4] and in series [5] were “+ (Viable cells in the range of 80%–90%)”, “+ (Viable cells in the range of 80%–90%)” and “+/+ (Viable cells in the range of 80%–90%)”, respectively. Also, the entries for the “Number of viable cells after 48 h of ligand treatment” value in series [3], in series [4] and in series [5] were “++ (Viable cells in the range of 50%–60%)”, “++ (Viable cells in the range of 50%–60%)” and “+/+ (Viable cells in the range of 80%–90%)”, respectively.

Take `c1ccc(-c2nnn(CC3CCCCO3)c2-c2ccccc2)cc1` (centres unmarked) [Ligand L7, 4,5-Diphenyl-1-((tetrahydro-2H-pyran-2-yl)methyl)-1H-1,2,3-triazole]: in series [1], the Tm is recorded as 29 ^o C. Also, the viability at 24 h in series [2] (setting [6]), in series [2] (setting [8]) and in series [2] (setting [10]) was 80 to 90% in each case. In addition, the viability at 48 h is 80 to 90% in series [2] (setting [7]), 50 to 60% in series [2] (setting [9]) and 50 to 60% in series [2] (setting [11]). Further, the “Number of viable cells after 24 h of ligand treatment” value in series [3] was “+/+ (Viable cells in the range of 80%–90%)”; in series [4] it was “+ (Viable cells in the range of 80%–90%)”; in series [5], “+ (Viable cells in the range of 80%–90%)”. Also, the results for the “Number of viable cells after 48 h of ligand treatment” value in series [3], in series [4] and in series [5] were “+/+ (Viable cells in the range of 80%–90%)”, “++ (Viable cells in the range of 50%–60%)” and “++ (Viable cells in the range of 50%–60%)”, respectively.

As for `Oc1cccc(-c2c(-c3ccccc3)nnn2CC2CCCCO2)c1` (centres unmarked) [Ligand L13, 3-(5-Phenyl-3-((tetrahydro-2H-pyran-2-yl)methyl)-3H-1,2,3-triazol-4-yl)phenol], the Tm in series [1] was 33 ^o C. Besides, the viability at 24 h in series [2] (setting [6]), in series [2] (setting [8]) and in series [2] (setting [10]) was 80 to 90% in each case. The viability at 48 h in series [2] (setting [7]), in series [2] (setting [9]) and in series [2] (setting [11]) was 80 to 90% in each case. The “Number of viable cells after 24 h of ligand treatment” value in series [3] is given as “+/+ (Viable cells in the range of 80%–90%)”; in series [4], “+ (Viable cells in the range of 80%–90%)”; in series [5], “+/+ (Viable cells in the range of 80%–90%)”. Further, the “Number of viable cells after 48 h of ligand treatment” value in series [3] is listed as “+/+ (Viable cells in the range of 80%–90%)”; in series [4], “++ (Viable cells in the range of 50%–60%)”; in series [5] it was “+/+ (Viable cells in the range of 80%–90%)”.

On to `CCCCc1nnn(Cc2ccccc2)c1-c1cccc(O)c1` [Ligand L6, 3-(3-Benzyl-5-butyl-3H-1,2,3-triazol-4-yl)phenol], for which the Tm in series [1] is recorded as 33 ^o C. The viability at 24 h in series [2] (setting [6]) lay within 80 to 90%; in series [2] (setting [8]), 80 to 90%; in series [2] (setting [10]), 50 to 60%. Moreover, the viability at 48 h in series [2] (setting [7]), in series [2] (setting [9]) and in series [2] (setting [11]) was 50 to 60% in each case. In addition, the results for the “Number of viable cells after 24 h of ligand treatment” value in series [3], in series [4] and in series [5] were “++/++ (Viable cells in the range of 50%–60%)”, “+ (Viable cells in the range of 80%–90%)” and “+ (Viable cells in the range of 80%–90%)”, respectively. The “Number of viable cells after 48 h of ligand treatment” value is given as “++/++ (Viable cells in the range of 50%–60%)” in series [3], “++ (Viable cells in the range of 50%–60%)” in series [4] and “++ (Viable cells in the range of 50%–60%)” in series [5].

For the compound `Oc1cccc(-c2c(-c3ccccc3)nnn2CC2CCCCO2)c1` (centres unmarked) [Ligand L8], the Tm in series [1] is 27 ^o C.

`C(=C\c1c(-c2ccccc2)nnn1CC1CCCCO1)/c1ccccc1` (centres unmarked) [Ligand L12, (E)-4-Phenyl-5-styryl-1-((tetrahydro-2H-pyran-2-yl)methyl)-1H-1,2,3-triazole]: the Tm in series [1] is on record as 31 ^o C. Also, the viability at 24 h in series [2] (setting [6]), in series [2] (setting [8]) and in series [2] (setting [10]) was 80 to 90% in each case. Besides, the viability at 48 h in series [2] (setting [7]) lay within 80 to 90%; in series [2] (setting [9]), 80 to 90%; in series [2] (setting [11]) it was 50 to 60%. For the same compound, the “Number of viable cells after 24 h of ligand treatment” value in series [3] is on record as “+/+ (Viable cells in the range of 80%–90%)”; in series [4] it was “+ (Viable cells in the range of 80%–90%)”; in series [5], “+ (Viable cells in the range of 80%–90%)”. In addition, the entries for the “Number of viable cells after 48 h of ligand treatment” value in series [3], in series [4] and in series [5] were “+/+ (Viable cells in the range of 80%–90%)”, “++ (Viable cells in the range of 50%–60%)” and “++ (Viable cells in the range of 50%–60%)”, respectively.

As to `COc1ccc(-c2c(-c3ccccc3)nnn2CC2CCCCO2)cc1` (centres unmarked) [Ligand L14, 5-(4-Methoxyphenyl)-4-phenyl-1-((tetrahydro-2H-pyran-2-yl)methyl)-1H-1,2,3-triazole], the Tm in series [1] is given as 27 ^o C. The viability at 24 h in series [2] (setting [6]), in series [2] (setting [8]) and in series [2] (setting [10]) was 80 to 90% throughout. The viability at 48 h fell in the range of 80 to 90% in series [2] (setting [7]), 80 to 90% in series [2] (setting [9]) and 50 to 60% in series [2] (setting [11]). Besides, the “Number of viable cells after 24 h of ligand treatment” value in series [3], in series [4] and in series [5] was “+ (Viable cells in the range of 80%–90%)” each time. In addition, the “Number of viable cells after 48 h of ligand treatment” value in series [3], in series [4] and in series [5] was “++ (Viable cells in the range of 50%–60%)” each time.
